Results as given in publication PMC2778250 (Journal of medicinal chemistry, 2009).

Columns and labels:
[1] = biological target: LcrF (Yersinia pestis, UniProt P28808); test: biochemical; type: binding; details: for IC50: LcrF IC50
[2] = biological target: T1, SlyA (Salmonella typhimurium, UniProt P40676); test: biochemical; type: binding, Salmonella spp.
T1 sequence (P40676 1-144): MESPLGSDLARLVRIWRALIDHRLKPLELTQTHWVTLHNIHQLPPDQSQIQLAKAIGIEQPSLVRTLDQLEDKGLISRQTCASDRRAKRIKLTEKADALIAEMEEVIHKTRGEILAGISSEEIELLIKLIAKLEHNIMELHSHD

[3] = tested on: Y. pseudotuberculosis; type: cell-based
[4] = tested on: S. aureus; test: In vitro antimicrobial susceptibility test; type: cell-based
[5] = tested on: E. coli; test: In vitro antimicrobial susceptibility test; type: cell-based
[6] = tested on: pET-15b supercoiled plasmid DNA; test: In vitro DNA binding assay; details: 100 μg/mL; agarose gel electrophoresis
[7] = tested on: uninfected J774A.1 murine macrophages; details: 50μg/mL
[8] = tested on: T3SS-dependent Y. pseudotuberculosis killing of macrophages

LcrF, sequence (P28808 whole entry, looked up): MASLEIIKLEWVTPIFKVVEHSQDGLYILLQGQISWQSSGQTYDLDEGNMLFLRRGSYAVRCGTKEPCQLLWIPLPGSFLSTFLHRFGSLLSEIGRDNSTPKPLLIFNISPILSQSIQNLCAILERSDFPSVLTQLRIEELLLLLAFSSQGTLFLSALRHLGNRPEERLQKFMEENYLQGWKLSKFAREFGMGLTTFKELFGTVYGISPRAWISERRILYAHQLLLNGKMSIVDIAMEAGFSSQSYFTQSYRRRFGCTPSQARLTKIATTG

SMILES: O=C(NCc1ccc(-c2nc3ccc([N+](=O)[O-])cc3n2O)cc1)c1ccc(F)cc1 [Compound 11, 4-Fluoro-N-[4-(1-hydroxy-6-nitro-1H-benzoimidazol-2-yl)-benzyl]-benzamide]
- inhibitory activity in LcrF-DNA binding assay (in words) [1]: no measurable activity

SMILES: O=C(Cc1ccc(F)cc1)Nc1ccc(-c2nc3ccc([N+](=O)[O-])cc3n2O)cc1 [Compound 12, 2-(4-Fluoro-phenyl)-N-[4-(1-hydroxy-6-nitro-1H-benzoimidazol-2-yl)-phenyl]-acetamide]
- inhibitory activity in LcrF-DNA binding assay (in words) [1]: no measurable activity

SMILES: O=C(CCc1ccc(F)cc1)Nc1ccc(-c2nc3ccc([N+](=O)[O-])cc3n2O)cc1 [Compound 13, 3-(4-Fluoro-phenyl)-N-[4-(1-hydroxy-6-nitro-1H-benzoimidazol-2-yl)-phenyl]-propionamide]
- inhibitory activity in LcrF-DNA binding assay (in words) [1]: no measurable activity

SMILES: O=C(/C=C/c1ccc(F)cc1)Nc1ccc(-c2nc3ccc([N+](=O)[O-])cc3n2O)cc1 [Compound 14, (E)-3-(4-Fluoro-phenyl)-N-[4-(1-hydroxy-6-nitro-1H-benzoimidazol-2-yl)-phenyl]-acrylamide]
- IC50 [1]: ≤ 10 µM
- IC50 [2]: > 53.8 µM
- antibacterial activity (in words) [3]: no measurable antibacterial activity
- antibacterial activity (in words) [4]: no measurable antibacterial activity
- antibacterial activity (in words) [5]: no measurable antibacterial activity
- non-specific DNA binding (effect on plasmid migration) [6]: non-DNA binding
- intrinsic toxicity to uninfected macrophages [7]: non-cytotoxic

SMILES: N#Cc1ccc(/C=C/C(=O)Nc2ccc(-c3nc4ccc([N+](=O)[O-])cc4n3O)cc2)cc1 [Compound 19]
- inhibition of Y. pseudotuberculosis cytotoxicity in whole cell assay (in words) [8]: strongly inhibited cytotoxicity

SMILES: Cc1ccc(/C=C/C(=O)Nc2ccc(-c3nc4ccc([N+](=O)[O-])cc4n3O)cc2)cc1 [Compound 20, (E)-N-[4-(1-Hydroxy-6-nitro-1H-benzoimidazol-2-yl)-phenyl]-3-p-tolyl-acrylamide]
- inhibition of Y. pseudotuberculosis cytotoxicity in whole cell assay (in words) [8]: relatively inactive

SMILES: COc1ccc(/C=C/C(=O)Nc2ccc(-c3nc4ccc([N+](=O)[O-])cc4n3O)cc2)cc1 [Compound 22, (E)-N-[4-(1-Hydroxy-6-nitro-1H-benzoimidazol-2-yl)-phenyl]-3-(4-methoxy-phenyl)-acrylamide]
- IC50 [1]: ≤ 10 µM
- IC50 [2]: > 55.2 µM
- antibacterial activity (in words) [3]: no measurable antibacterial activity
- antibacterial activity (in words) [4]: no measurable antibacterial activity
- antibacterial activity (in words) [5]: no measurable antibacterial activity
- non-specific DNA binding (effect on plasmid migration) [6]: non-DNA binding
- intrinsic toxicity to uninfected macrophages [7]: non-cytotoxic

SMILES: COc1ccc(/C=C/C(=O)Nc2ccc(-c3nc4ccc([N+](=O)[O-])cc4n3O)cc2)c(OC)c1 [Compound 24, (E)-3-(2,4-Dimethoxy-phenyl)-N-[4-(1-hydroxy-6-nitro-1H-benzoimidazol-2-yl)-phenyl]-acrylamide]
- inhibitory activity in LcrF-DNA binding assay (in words) [1]: loss of activity

SMILES: CC(C)c1ccc(/C=C/C(=O)Nc2ccc(-c3nc4ccc([N+](=O)[O-])cc4n3O)cc2)cc1 [Compound 25, (E)-N-[4-(1-Hydroxy-6-nitro-1H-benzoimidazol-2-yl)-phenyl]-3-(4-isopropyl-phenyl)-acrylamide]
- inhibitory activity in LcrF-DNA binding assay (in words) [1]: loss of activity

SMILES: O=C(/C=C/c1ccc(-n2cnnc2)cc1)Nc1ccc(-c2nc3ccc([N+](=O)[O-])cc3n2O)cc1 [Compound 27]
- inhibitory activity in LcrF-DNA binding assay (in words) [1]: loss of activity

SMILES: O=C(/C=C/c1ccc(-c2c[nH]cn2)cc1)Nc1ccc(-c2nc3ccc([N+](=O)[O-])cc3n2O)cc1 [Compound 28]
- inhibitory activity in LcrF-DNA binding assay (in words) [1]: loss of activity

SMILES: O=C(/C=C/c1ccc(F)cc1)Nc1ccc(-c2nc3ccc([N+](=O)[O-])cc3n2O)nc1 [Compound 31, (E)-3-(4-Fluoro-phenyl)-N-[6-(1-hydroxy-6-nitro-1H-benzoimidazol-2-yl)-pyridin-3-yl]-acrylamide]
- inhibition of Y. pseudotuberculosis cytotoxicity in whole cell assay (in words) [8]: devoid of any measurable activity

SMILES: Cc1cc2nc(-c3ccc(NC(=O)/C=C/c4ccc(F)cc4)cc3)n(O)c2cc1[N+](=O)[O-] [Compound 36, (E)-3-(4-Fluoro-phenyl)-N-[4-(1-hydroxy-5-methyl-6-nitro-1H-benzoimidazol-2-yl)-phenyl]-acrylamide]
- IC50 [1]: ≤ 10 µM
- IC50 [2]: > 52 µM
- antibacterial activity (in words) [3]: no measurable antibacterial activity
- antibacterial activity (in words) [4]: no measurable antibacterial activity
- antibacterial activity (in words) [5]: no measurable antibacterial activity
- non-specific DNA binding (effect on plasmid migration) [6]: non-DNA binding
- intrinsic toxicity to uninfected macrophages [7]: non-cytotoxic

SMILES: CN(C)CCN(C)c1cc2nc(-c3ccc(NC(=O)/C=C/c4ccc(F)cc4)cc3)n(O)c2cc1[N+](=O)[O-] [Compound 40]
- non-specific DNA binding (effect on plasmid migration) [6]: non-specific binding to DNA

SMILES: CCOc1ccc(-c2nc3ccc(-c4nc5ccc(N6CCN(C)CC6)cc5[nH]4)cc3[nH]2)cc1 [Hoechst 33342, reference compound]
- non-specific DNA binding (effect on plasmid migration) [6]: faint smear on the gel
